Source: publication PMC3148428 (2011)

Molecular target: T1, ABCG2 (Rattus norvegicus, UniProt Q80W57)
T1 sequence (Q80W57 1-657): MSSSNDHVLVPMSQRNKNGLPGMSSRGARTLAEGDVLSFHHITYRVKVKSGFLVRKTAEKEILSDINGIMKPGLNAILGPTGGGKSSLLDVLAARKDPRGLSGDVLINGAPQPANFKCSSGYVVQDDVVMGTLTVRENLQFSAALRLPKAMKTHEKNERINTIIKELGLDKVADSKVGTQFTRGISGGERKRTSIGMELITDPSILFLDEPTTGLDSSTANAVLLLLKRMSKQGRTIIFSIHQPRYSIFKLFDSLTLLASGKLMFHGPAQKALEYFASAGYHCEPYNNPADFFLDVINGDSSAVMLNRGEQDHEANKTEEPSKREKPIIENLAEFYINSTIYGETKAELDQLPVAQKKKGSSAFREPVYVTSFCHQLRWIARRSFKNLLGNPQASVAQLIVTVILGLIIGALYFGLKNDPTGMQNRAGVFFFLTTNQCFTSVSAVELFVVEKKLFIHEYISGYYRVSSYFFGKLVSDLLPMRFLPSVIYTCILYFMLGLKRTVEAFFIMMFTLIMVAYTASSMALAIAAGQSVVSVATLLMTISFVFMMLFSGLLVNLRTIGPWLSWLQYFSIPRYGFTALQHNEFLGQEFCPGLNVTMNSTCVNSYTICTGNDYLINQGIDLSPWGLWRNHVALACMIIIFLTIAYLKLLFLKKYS

Work on `Cc1cn(-c2cc(NC(=O)c3ccc(C)c(Nc4nccc(-c5cccnc5)n4)c3)cc(C(F)(F)F)c2)cn1` [Tasigna] yielded an IC50 of 0.0932 µM.
